Measured values: patent US6756359B2, “C12 modified erythromycin macrolides and ketolides having antibacterial activity” (Chiron Corporation, priority 2001, dated 2004)
Values after ≈ are worked out from the molar mass of the structure shown.

Columns and labels:
Assay in all cases: Antibacterial activity in vitro, MIC by broth microdilution
[1] = system: S. pyogenes Stpy_8668; type: cell-based; conditions: Table 3, Strain ID D: S. pyogenes Stpy_8668
Procedure, shortened: (§1)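 Broth microdilution per NCCLS in cation-adjusted Mueller-Hinton broth (S. pneumoniae: plus 2-5% lysed horse blood, 5-10% CO2), inoculum 3×10^5–7×10^5 CFU/mL, 2-fold serial drug dilutions, 35° C. for 18-24 hours. MIC taken as lowest concentration preventing visible growth.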

[2] = system: S. epidermidis Step_f50654 Pen S; type: cell-based; conditions: Table 3, Strain ID B: S. epidermidis Step_f50654 Pen S; unit assumed
Procedure, shortened: as §1

[3] = system: E. faecalis Enfa_29212; type: cell-based; conditions: Table 3, Strain ID C: E. faecalis Enfa_29212
Procedure, shortened: as §1

[4] = system: S. epidermidis Step_14990; type: cell-based; conditions: Table 3, Strain ID A: S. epidermidis Step_14990; unit assumed
Procedure, shortened: as §1

[5] = system: E. coli Esco_25922; type: cell-based; conditions: Table 3, Strain ID M: E. coli Esco_25922; unit assumed
Procedure, shortened: as §1

[6] = system: S. pneumoniae Stpn_Mef 5654; type: cell-based, Streptococcus pneumoniae; conditions: Table 3, Strain ID J: S. pneumoniae Stpn_Mef 5654; unit assumed
Procedure, shortened: as §1

[7] = system: S. pneumoniae Stpn_Erm 6849; type: cell-based, Streptococcus pneumoniae; conditions: Table 3, Strain ID H: S. pneumoniae Stpn_Erm 6849; unit assumed
Procedure, shortened: as §1

[8] = system: S. pneumoniae Stpn_Erm S 4297; type: cell-based, Streptococcus pneumoniae; conditions: Table 3, Strain ID I: S. pneumoniae Stpn_Erm S 4297
Procedure, shortened: as §1

[9] = system: S. pneumoniae Stpn_Mef S 3427; type: cell-based, Streptococcus pneumoniae; conditions: Table 3, Strain ID K: S. pneumoniae Stpn_Mef S 3427
Procedure, shortened: as §1

[10] = system: S. pneumoniae Stpn_49619; type: cell-based, Streptococcus pneumoniae; conditions: Table 3, Strain ID E: S. pneumoniae Stpn_49619
Procedure, shortened: as §1

[11] = system: S. pneumoniae Stpn_280-962 Pen S; type: cell-based, Streptococcus pneumoniae; conditions: Table 3, Strain ID G: S. pneumoniae Stpn_280-962 Pen S
Procedure, shortened: as §1

[12] = system: S. pneumoniae Stpn_297-749 Pen R; type: cell-based, Streptococcus pneumoniae; conditions: Table 3, Strain ID F: S. pneumoniae Stpn_297-749 Pen R
Procedure, shortened: as §1

[13] = system: H. influenzae Hain_49247; type: cell-based, Haemophilus influenzae; conditions: Table 3, Strain ID L: H. influenzae Hain_49247; unit assumed
Procedure, shortened: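 Visible-growth inhibition defined the MIC, obtained by NCCLS broth microdilution at 35° C. over 18-24 hours with a final inoculum of 3×10^5–7×10^5 CFU/mL.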

Compound	MIC [1]	MIC [2] [µg/mL]	MIC ([3]; unit assumed) [µg/mL]	MIC [4] [µg/mL]	MIC [5] [µg/mL]	MIC [6] [µg/mL]	MIC [7] [µg/mL]	MIC ([8]; unit assumed) [µg/mL]	MIC [9]	MIC [10]	MIC [11]	MIC [12]	MIC [13] [µg/mL]	MIC [3]	MIC [8]	MIC ([1]; unit assumed) [µg/mL]	MIC ([9]; unit assumed) [µg/mL]	MIC ([10]; unit assumed) [µg/mL]	MIC ([11]; unit assumed) [µg/mL]	MIC ([12]; unit assumed) [µg/mL]
CC[C@H]1OC(=O)[C@H](C)C(=O)[C@H](C)[C@@H](O[C@@H]2O[C@H](C)C[C@H](N(C)C)[C@H]2O)[C@@](C)(OC)C[C@@H](C)C2=NCCN3C(=O)O[C@H]1[C@H]3[C@H]2C [Compound 6222]		1.56 (≈ 2.5 µM)	0.4 (≈ 0.641 µM)	1.56 (≈ 2.5 µM)	50 (≈ 80.2 µM)	0.78 (≈ 1.25 µM)	> 50	> 50					25 (≈ 40.1 µM)			0.2 (≈ 0.321 µM)	0.4 (≈ 0.641 µM)	0.2 (≈ 0.321 µM)	0.2 (≈ 0.321 µM)	0.4 (≈ 0.641 µM)
CC[C@H]1OC(=O)[C@H](C)C(=O)[C@H](C)[C@@H](O[C@@H]2O[C@H](C)C[C@H](N(C)C)[C@H]2O)[C@@](C)(OC)C[C@@H](C)C2=N[C@@H](C)CN3C(=O)O[C@H]1[C@H]3[C@H]2C [Compound 6223]		3.13 (≈ 4.91 µM)	0.78 (≈ 1.22 µM)	1.56 (≈ 2.45 µM)	50 (≈ 78.4 µM)	0.78 (≈ 1.22 µM)	> 50	> 50					> 50			0.2 (≈ 0.314 µM)	0.4 (≈ 0.627 µM)	0.2 (≈ 0.314 µM)	0.2 (≈ 0.314 µM)	0.2 (≈ 0.314 µM)
CC[C@H]1OC(=O)[C@H](C)C(=O)[C@H](C)[C@@H](O[C@@H]2O[C@H](C)C[C@H](N(C)C)[C@H]2O)[C@@](C)(OC)C[C@@H](C)C(=O)[C@H](C)[C@H]2N(CCCCn3cnc(-c4cccnc4)c3)C(=O)O[C@]12CC [Compound 7280]	≦0.05	0.2 (≈ 0.242 µM)	0.1 (≈ 0.121 µM)	0.2 (≈ 0.242 µM)	25 (≈ 30.3 µM)	0.4 (≈ 0.484 µM)	0.4 (≈ 0.484 µM)			≦0.05	≦0.05	≦0.05	6.25 (≈ 7.57 µM)		≦0.05		0.1 (≈ 0.121 µM)			
CC[C@H]1OC(=O)[C@H](C)C(=O)[C@H](C)[C@@H](O[C@@H]2O[C@H](C)C[C@H](N(C)C)[C@H]2O)[C@@](C)(OC)C[C@@H](C)C(=O)[C@H](C)[C@H]2N(CCCCn3cnc(-c4ccccc4)c3)C(=O)O[C@]12CC [Compound 7281]	≦0.05	0.1 (≈ 0.121 µM)	0.1 (≈ 0.121 µM)	0.2 (≈ 0.242 µM)	25 (≈ 30.3 µM)	0.4 (≈ 0.485 µM)	0.2 (≈ 0.242 µM)		≦0.05	≦0.05	≦0.05	≦0.05	3.13 (≈ 3.79 µM)		≦0.05					
CC[C@H]1OC(=O)[C@H](C)C(=O)[C@H](C)[C@@H](O[C@@H]2O[C@H](C)C[C@H](N(C)C)[C@H]2O)[C@@](C)(OC)C[C@@H](C)C(=O)[C@H](C)[C@H]2N(CCCCn3cnc4ccccc43)C(=O)O[C@]12CC [Compound 7282]	≦0.05	0.2 (≈ 0.25 µM)	0.1 (≈ 0.125 µM)	0.4 (≈ 0.501 µM)	12.5 (≈ 15.6 µM)	0.4 (≈ 0.501 µM)	0.78 (≈ 0.976 µM)	0.2 (≈ 0.25 µM)		≦0.05	≦0.05	≦0.05	3.13 (≈ 3.92 µM)				0.1 (≈ 0.125 µM)			
CC[C@H]1OC(=O)[C@H](C)C(=O)[C@H](C)[C@@H](O[C@@H]2O[C@H](C)C[C@H](N(C)C)[C@H]2O)[C@@](C)(OC)C[C@@H](C)C(=O)[C@H](C)[C@H]2N(CCCCc3ccnc4ccccc34)C(=O)O[C@]12CC [Compound 7283]	≦0.05	0.2 (≈ 0.247 µM)	0.1 (≈ 0.123 µM)	0.2 (≈ 0.247 µM)	12.5 (≈ 15.4 µM)	0.4 (≈ 0.494 µM)	0.4 (≈ 0.494 µM)	0.1 (≈ 0.123 µM)	≦0.05	≦0.05	≦0.05	≦0.05	3.13 (≈ 3.86 µM)							

The remaining lines, values ahead:

MIC [1]	MIC [2] [µg/mL]	MIC ([3]; unit assumed) [µg/mL]	MIC [4] [µg/mL]	MIC [5] [µg/mL]	MIC [6] [µg/mL]	MIC [7] [µg/mL]	MIC ([8]; unit assumed) [µg/mL]	MIC [9]	MIC [10]	MIC [11]	MIC [12]	MIC [13] [µg/mL]	MIC [3]	MIC [8]	MIC ([1]; unit assumed) [µg/mL]	MIC ([9]; unit assumed) [µg/mL]	MIC ([10]; unit assumed) [µg/mL]	MIC ([11]; unit assumed) [µg/mL]	MIC ([12]; unit assumed) [µg/mL]	Compound
≦0.5	0.4 (≈ 0.519 µM)	0.1 (≈ 0.13 µM)	0.2 (≈ 0.26 µM)	> 50	0.2 (≈ 0.26 µM)	6.25 (≈ 8.12 µM)	0.4 (≈ 0.519 µM)	≦0.05	≦0.5	≦0.5	≦0.5	6.25 (≈ 8.12 µM)								CC[C@H]1OC(=O)[C@H](C)C(=O)[C@H](C)[C@@H](O[C@@H]2O[C@H](C)C[C@H](N(C)C)[C@H]2O)[C@@](C)(OC)C[C@@H](C)C(=O)[C@H](C)[C@@H]2[C@@H]1OC(=O)N2CCCCn1ccc2ccccc21 [Compound 4717]
≦0.05	0.2 (≈ 0.256 µM)		0.2 (≈ 0.256 µM)	25 (≈ 32 µM)	0.2 (≈ 0.256 µM)	25 (≈ 32 µM)	0.1 (≈ 0.128 µM)	≦0.05	≦0.05	≦0.05	≦0.05	3.13 (≈ 4 µM)	≦0.05							CC[C@H]1OC(=O)[C@H](C)C(=O)[C@H](C)[C@@H](O[C@@H]2O[C@H](C)C[C@H](N(C)C)[C@H]2O)[C@@](C)(OC)C[C@@H](C)C(=O)[C@H](C)[C@@H]2[C@@H]1OC(=O)N2CCCCc1ccc2ccccc2n1 [Compound 5960]
≦0.05	0.1 (≈ 0.128 µM)		0.1 (≈ 0.128 µM)	6.25 (≈ 7.99 µM)	0.4 (≈ 0.512 µM)	3.13 (≈ 4 µM)	0.1 (≈ 0.128 µM)	≦0.5	≦0.05	≦0.05	≦0.05	1.56 (≈ 1.99 µM)	≦0.05							CC[C@H]1OC(=O)[C@H](C)C(=O)[C@H](C)[C@@H](O[C@@H]2O[C@H](C)C[C@H](N(C)C)[C@H]2O)[C@@](C)(OC)C[C@@H](C)C(=O)[C@H](C)[C@@H]2[C@@H]1OC(=O)N2CCCCc1ccnc2ccccc12 [Compound 6220]
≦0.05	0.1 (≈ 0.125 µM)		0.1 (≈ 0.125 µM)	25 (≈ 31.4 µM)	0.4 (≈ 0.502 µM)	0.1 (≈ 0.125 µM)		≦0.05	≦0.05	≦0.05	≦0.05	3.13 (≈ 3.93 µM)	≦0.05	≦0.05						CC[C@H]1OC(=O)[C@H](C)C(=O)[C@H](C)[C@@H](O[C@@H]2O[C@H](C)C[C@H](N(C)C)[C@H]2O)[C@@](C)(OC)C[C@@H](C)C(=O)[C@H](C)[C@@H]2[C@@H]1OC(=O)N2CCCCn1cnc(-c2ccccc2)c1 [Compound 6221]
